Source: patent US20070071773A1, “Compositions and methods for the treatment and prophylaxis of infections caused by gram positive bacteria” (priority 2002, published 2007)

Legend:
[1] = system: trypsin-like GAS protease; assay: Degradation of IL-8 by JS95 supernatant (Western blot, ELISA); type: biochemical, Group A Streptococcus (GAS); conditions: for IL-8 degradation (ELISA): JS95 supernatant pretreated 30 min 37° C.: 0.3 μM aprotinin, 1 mM benzamidine, 100 μg/ml soybean trypsin inhibitor, FIG. 15A
Experimental: […] was grown in the absence and presence of SilCR (50 μg/ml). IL-8 was incubated with the indicated supernatant fractions and then subjected to 18% SDS-PAGE. The separated protein bands were electro-transferred to a nitrocellulose membrane. Anti-IL-8 antibody and a secondary antibody conjugated to horseradish peroxidase were used to detect IL-8. The number of the lane represents incubation of IL-8 with: 1, DMEM+FCS (control); 2, JS95 supernatant; 3, JS95 supernatant grown in the presence of SilCR; 4, JS95 supernatant, pretreated with pefabloc SC; 5, supernatant of JS95 grown in the absence of SilCR, then 50 μg/ml of SilCR was added to the degradation assay.
15A The column numbers represent the ELISA results after incubation of IL-8 with: 1, DMEM+FCS (control); and the supernatants of: 2, JS95; 3, JS95 grown in the presence of SilCR; 4, JS95 pretreated with aprotenin; 5, JS95 pretreated with soybean trypsin inhibitor; 6, JS95 pretreated with benzamidine. The background of the ELISA assay (0.08±0.004) was subtracted from the shown results. The data represent the mean ± SD, of three separate experiments.
(§1) A. Cell culture of JS95 strain was grown in THY to an OD600 of 0.2. To determine the effect of SilCR on chemokine proteolysis, the culture was split into two equal fractions, of which one received SilCR (25 μg/ml). Both fractions were further incubated until they reached an OD600 of 0.3. Bacteria were washed twice with sterile PBS and once with DMEM containing 10% FCS. The washed pellets were re-suspended in DMEM supplemented with FCS to their original volumes. SilCR (50 μg/ml) was added to the fraction that was grown in the presence of SilCR, and the two fractions were further incubated for 1 h at 37° C. Supernatants were collected after centrifugation. The proteolysis reaction contained: 0.08 ml of each supernatant, 100 ng of recombinant human IL-8/CXCL8 (R&D systems, Minneapolis, Minn.) or 30 ng of recombinant murine MIP-2 (R& D systems, Minneapolis, Minn.), 20 mM MOPS pH=7.2 in a final volume of 0.1 ml. The reaction was conducted for 1 h at 37° C., and stopped by boiling for 1 min.
(§2) B. For testing protease inhibitors, the supernatants were pre-incubated with the inhibitor for 30 min at 37° C., followed by the proteolysis reaction. The following concentrations of inhibitors were used: 4 mM pefabloc SC; 0.5 mM PMSF; 0.3 μM aprotinin; 1 mM benzamidine; 100 μg/ml soybean trypsin inhibitor (STI).
C. Proteolysis of chemokines was determined by ELISA and Dot-blot. IL-8 content was quantified by ELISA using the Quantikine kit for determination of human IL-8 (R&D Systems, Minneapolis, Minn.) according to the manufacturer's instructions.

[2] = system: trypsin-like GAS protease; assay: Degradation of MIP-2 by JS95 supernatant (dot blot); type: biochemical, Group A Streptococcus (GAS); conditions: pretreatment of JS95 supernatant: 4 mM pefabloc SC; 0.3 μM aprotinin; 1 mM benzamidine; 100 μg/ml STI
Experimental: 15B. The dots in the control panel represent MIP-2 that was incubated in DMEM+FCS, in the absence of JS95 supernatant and spotted at the following doses: 30, 15, 7.5, 3.75 and 1.87 ng (from left to right). The dots in the lower panel were generated in the same way, except that MIP-2 was previously incubated with JS95 supernatant.
as §1, §2
Samples of 50 μl from the proteolysis reaction were diluted in PBS to a final volume of 0.5 ml and passed through a 96-wells dot-blotter onto a 0.2-μm-nitrocellulose membrane. Detection of MIP-2 was performed using anti-mouse MIP-2 polyclonal antibodies (R&D Systems Minneapolis, Minn.) followed by addition of anti-mouse IgG-HRP antibody. Dots were detected using the SuperSignal West Pico chemiluminescent detection kit (Pierce, Rockford, Ill.).

Question: Which results are given for soybean trypsin inhibitor?
Answer: IL-8 degradation (ELISA) [1]: completely abrogated; MIP-2 degradation [2]: blocked

Question: Which “IL-8 degradation (ELISA)” value [1] does the source give for `N=C(N)c1ccccc1` [benzamidine] here?
Answer: completely abrogated

Question: And the MIP-2 degradation [2]?
Answer: blocked

Question: With aprotinin as the compound, how does the “IL-8 degradation (ELISA)” value [1] read?
Answer: completely inhibited

Question: And the MIP-2 degradation [2]?
Answer: blocked

Question: `Cl.NCCc1ccc(S(=O)(=O)F)cc1` [pefabloc SC] was tested. Which “IL-8 degradation (Western blot)” value ([1]; JS95 supernatant pretreated 30 min 37° C. with 4 mM pefabloc SC, FIG. 14) did it give?
Answer: almost completely abolished

Question: What about the MIP-2 degradation [2] of the same compound?
Answer: blocked
